Where a SMILES comes first, the peptide text is derived from it. Bridges are numbered along the chain shown (N, C = ends). [ ]: non-standard residue; d: D form. The star is where a group is joined. Ileψ(thiazoline)Cys = CC[C@H](C)[C@H](N)C1=N[C@H](C(=O)*)CS1; dOrn = NCCC[C@@H](N)C(=O)O
How the values were obtained:
[1] = molecular target: T1, Alpha-2C adrenergic receptor (Homo sapiens, UniProt P18825); assay: DRUGMATRIX: Adrenergic Alpha-2C radioligand binding (ligand: [3H] MK-912); type: cell membranes, Sf9, Membrane; settings: sf9
T1 sequence (P18825 whole entry): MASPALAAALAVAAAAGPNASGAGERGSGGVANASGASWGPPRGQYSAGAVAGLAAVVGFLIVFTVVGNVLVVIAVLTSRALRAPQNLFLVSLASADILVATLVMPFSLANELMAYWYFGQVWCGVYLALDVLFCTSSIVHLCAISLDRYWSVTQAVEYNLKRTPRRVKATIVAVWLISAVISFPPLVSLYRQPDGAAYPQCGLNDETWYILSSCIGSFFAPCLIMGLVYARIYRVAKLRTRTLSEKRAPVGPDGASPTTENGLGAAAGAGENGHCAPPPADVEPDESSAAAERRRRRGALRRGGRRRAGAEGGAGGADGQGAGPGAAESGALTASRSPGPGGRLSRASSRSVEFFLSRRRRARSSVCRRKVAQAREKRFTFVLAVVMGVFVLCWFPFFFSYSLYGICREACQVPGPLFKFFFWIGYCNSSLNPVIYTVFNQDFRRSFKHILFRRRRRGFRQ

[2] = molecular target: Sodium-dependent noradrenaline transporter (Homo sapiens, UniProt P23975); assay: DRUGMATRIX: Norepinephrine Transporter radioligand binding (ligand: [125I] RTI-55); type: cell membranes, MDCK, Membrane; settings: mdck; Not Active = under 50% inhibition at 10 µM
[3] = molecular target: T2, Thromboxane-A synthase (Homo sapiens, UniProt P24557); assay: biochemical; type: tissue-based, Platelet;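 note: enzyme inhibition assay with PGH2 supplied as substrate; in other assays of this panel Not Active means under 50% inhibition at 10 µM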
T2 sequence (P24557 whole entry): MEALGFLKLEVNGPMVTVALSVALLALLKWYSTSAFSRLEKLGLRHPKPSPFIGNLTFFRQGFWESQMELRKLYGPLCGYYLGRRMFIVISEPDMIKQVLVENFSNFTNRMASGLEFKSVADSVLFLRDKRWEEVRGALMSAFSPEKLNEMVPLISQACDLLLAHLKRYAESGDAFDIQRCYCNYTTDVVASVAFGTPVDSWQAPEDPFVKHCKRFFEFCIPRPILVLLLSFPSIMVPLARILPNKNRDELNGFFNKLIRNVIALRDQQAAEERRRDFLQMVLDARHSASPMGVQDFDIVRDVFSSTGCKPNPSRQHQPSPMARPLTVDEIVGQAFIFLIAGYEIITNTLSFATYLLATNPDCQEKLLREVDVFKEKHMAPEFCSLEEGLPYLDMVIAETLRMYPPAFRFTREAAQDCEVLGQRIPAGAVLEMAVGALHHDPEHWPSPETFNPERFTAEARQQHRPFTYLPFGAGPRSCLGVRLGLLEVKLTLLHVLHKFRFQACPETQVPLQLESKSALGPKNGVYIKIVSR

[4] = molecular target: T3, C-X-C chemokine receptor type 1 (Homo sapiens, UniProt P25024); note: in other assays of this panel Not Active means under 50% inhibition at 10 µM
T3 sequence (P25024 whole entry): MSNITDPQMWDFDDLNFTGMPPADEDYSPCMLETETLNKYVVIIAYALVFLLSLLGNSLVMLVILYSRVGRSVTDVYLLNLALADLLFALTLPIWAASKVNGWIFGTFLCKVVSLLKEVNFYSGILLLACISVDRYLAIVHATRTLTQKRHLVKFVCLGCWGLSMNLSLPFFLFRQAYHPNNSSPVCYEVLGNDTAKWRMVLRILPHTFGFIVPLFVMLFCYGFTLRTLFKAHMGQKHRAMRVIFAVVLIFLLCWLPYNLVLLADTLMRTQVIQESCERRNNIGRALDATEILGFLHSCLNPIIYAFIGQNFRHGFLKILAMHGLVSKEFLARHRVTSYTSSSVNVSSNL

[5] = DRUGMATRIX: GABAA, Muscimol, Central radioligand binding (ligand: [3H] Muscimol); type: cell membranes, Rattus norvegicus, Wistar, Brain, Membrane; settings: Not Active = under 50% inhibition at 10 µM
[6] = molecular target: T4, Amine oxidase [flavin-containing] A (Homo sapiens, UniProt P21397); assay: DRUGMATRIX: Monoamine Oxidase MAO-A enzyme inhibition (substrate: Kynuramine); parameters: species or system BTI-TN-5B1-4; settings: bti-tn-5b1-4; Not Active = under 50% inhibition at 10 µM
T4 sequence (P21397 whole entry): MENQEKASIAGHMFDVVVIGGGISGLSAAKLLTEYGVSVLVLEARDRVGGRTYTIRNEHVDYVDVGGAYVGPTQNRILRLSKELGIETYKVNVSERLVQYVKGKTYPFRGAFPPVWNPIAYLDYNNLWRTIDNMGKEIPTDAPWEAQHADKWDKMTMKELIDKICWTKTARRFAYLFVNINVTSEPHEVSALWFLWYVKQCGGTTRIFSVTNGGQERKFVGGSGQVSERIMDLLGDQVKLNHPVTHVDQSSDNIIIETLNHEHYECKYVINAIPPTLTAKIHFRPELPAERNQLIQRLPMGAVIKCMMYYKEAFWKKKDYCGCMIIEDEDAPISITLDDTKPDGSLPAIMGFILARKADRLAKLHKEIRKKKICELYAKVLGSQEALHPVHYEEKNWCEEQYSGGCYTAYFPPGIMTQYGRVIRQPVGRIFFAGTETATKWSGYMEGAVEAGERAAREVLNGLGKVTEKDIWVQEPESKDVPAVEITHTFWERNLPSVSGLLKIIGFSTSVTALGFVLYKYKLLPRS

[7] = DRUGMATRIX: Potassium Channel [KATP] radioligand binding (ligand: [3H] Glyburide); type: cell membranes, Membrane; settings: hit-t15; Not Active = under 50% inhibition at 10 µM
[8] = molecular target: T5, Neutrophil elastase (Homo sapiens, UniProt P08246); type: tissue-based;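 note: inhibition of neutrophil elastase enzyme activity, measured with a p-nitroanilide-linked peptide substrate; in other assays of this panel Not Active means under 50% inhibition at 10 µM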
T5 sequence (P08246 whole entry): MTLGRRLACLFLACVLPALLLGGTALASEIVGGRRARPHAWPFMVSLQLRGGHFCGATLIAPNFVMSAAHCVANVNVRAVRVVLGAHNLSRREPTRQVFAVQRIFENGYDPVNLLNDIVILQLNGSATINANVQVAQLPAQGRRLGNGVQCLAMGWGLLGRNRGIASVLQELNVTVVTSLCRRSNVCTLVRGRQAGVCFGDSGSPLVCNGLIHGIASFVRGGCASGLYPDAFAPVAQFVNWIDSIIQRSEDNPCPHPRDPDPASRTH

[9] = molecular target: Tyrosine-protein kinase Lck (Homo sapiens, UniProt P06239); assay: DRUGMATRIX: Protein Tyrosine Kinase, LCK enzyme inhibition (substrate: Poly(Glu:Tyr)); type: cell-based, Insect cells; settings: insect cells; Not Active = under 50% inhibition at 10 µM
Chain of Tyrosine-protein kinase Lck (P06239 whole entry): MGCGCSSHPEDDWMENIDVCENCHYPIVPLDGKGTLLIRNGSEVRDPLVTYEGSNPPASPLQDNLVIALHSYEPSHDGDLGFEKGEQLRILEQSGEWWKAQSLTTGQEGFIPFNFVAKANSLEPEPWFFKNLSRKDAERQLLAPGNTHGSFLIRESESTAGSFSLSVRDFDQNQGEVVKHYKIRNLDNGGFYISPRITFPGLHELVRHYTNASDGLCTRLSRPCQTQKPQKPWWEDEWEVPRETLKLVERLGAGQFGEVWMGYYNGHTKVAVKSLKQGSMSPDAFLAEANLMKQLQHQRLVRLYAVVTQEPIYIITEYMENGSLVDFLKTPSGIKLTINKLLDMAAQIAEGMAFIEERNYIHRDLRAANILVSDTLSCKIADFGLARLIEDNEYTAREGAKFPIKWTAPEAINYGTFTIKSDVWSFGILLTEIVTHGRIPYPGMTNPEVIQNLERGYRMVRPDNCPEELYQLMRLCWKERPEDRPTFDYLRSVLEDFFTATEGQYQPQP

Chain of Sodium-dependent noradrenaline transporter (P23975 whole entry): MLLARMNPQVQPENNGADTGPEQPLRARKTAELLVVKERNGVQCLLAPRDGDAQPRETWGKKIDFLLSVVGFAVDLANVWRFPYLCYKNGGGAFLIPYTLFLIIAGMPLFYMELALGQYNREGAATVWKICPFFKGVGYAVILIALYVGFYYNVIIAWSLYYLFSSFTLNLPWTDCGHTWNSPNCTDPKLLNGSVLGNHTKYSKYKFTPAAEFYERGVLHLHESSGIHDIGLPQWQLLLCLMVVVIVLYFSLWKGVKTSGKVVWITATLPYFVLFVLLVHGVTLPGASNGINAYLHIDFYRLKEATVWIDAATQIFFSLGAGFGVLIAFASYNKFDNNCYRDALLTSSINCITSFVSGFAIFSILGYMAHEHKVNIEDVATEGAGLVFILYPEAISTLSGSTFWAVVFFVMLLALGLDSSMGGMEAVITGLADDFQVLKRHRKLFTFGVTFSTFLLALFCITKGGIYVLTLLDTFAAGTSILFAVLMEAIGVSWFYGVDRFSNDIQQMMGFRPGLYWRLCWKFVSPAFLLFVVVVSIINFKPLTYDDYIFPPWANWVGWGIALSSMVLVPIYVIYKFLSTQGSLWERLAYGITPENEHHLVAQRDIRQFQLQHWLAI

Structure (SMILES) | IC50 [1] | IC50 [2] | IC50 ([3]; platelet) | IC50 [4] | IC50 [5] | Ki [5] | IC50 [6] | IC50 [7] | Ki [7] | IC50 [8] | IC50 [9] | IC50 ([3]; read-out: IC50) [µM]
N=C(N)NCCCCNC(=N)N.O=S(=O)(O)O [ARCAINE SULFATE] | Not Active | Not Active | Not Active | Not Active | Not Active | Not Active | Not Active | Not Active | Not Active | Not Active | Not Active | –
O=c1cc(-c2ccccc2)oc2c1ccc1ccccc12 [ALPHA-NAPHTHOFLAVONE] | Not Active | Not Active | – | Not Active | Not Active | Not Active | Not Active | Not Active | Not Active | Not Active | Not Active | 6.76
CC(=O)OCC(=O)[C@@]1(OC(C)=O)[C@@H](C)C[C@H]2[C@@H]3C[C@H](F)C4=CC(=O)C=C[C@]4(C)[C@@]3(F)[C@@H](O)C[C@@]21C [DIFLORASONE DIACETATE] | Not Active | Not Active | Not Active | Not Active | Not Active | Not Active | Not Active | Not Active | Not Active | Not Active | Not Active | –
O=C1OCCN1/N=C/c1ccc([N+](=O)[O-])o1 [FURAZOLIDONE] | Not Active | Not Active | Not Active | Not Active | Not Active | Not Active | Not Active | Not Active | Not Active | Not Active | Not Active | –
CC[C@H](C)[C@H](N)C1=N[C@H](C(=O)N[C@@H](CC(C)C)C(=O)N[C@H](CCC(=O)O)C(=O)N[C@H](C(=O)N[C@H]2CCCCNC(=O)[C@H](CC(N)=O)NC(=O)[C@@H](CC(=O)O)NC(=O)[C@H](Cc3cnc[nH]3)NC(=O)[C@@H](Cc3ccccc3)NC(=O)[C@H]([C@@H](C)CC)NC(=O)[C@@H](CCCN)NC2=O)[C@@H](C)CC)CS1 [BACITRACIN] ({Ileψ(thiazoline)Cys}-L[dE]IK[dOrn]I[dF]H[dD]N; lactam 4-C) | Not Active | Not Active | Not Active | Not Active | Not Active | Not Active | Not Active | Not Active | Not Active | Not Active | – | –
Fc1ccc([C@@H]2CCNC[C@H]2COc2ccc3c(c2)OCO3)cc1 [PAROXETINE] | Not Active | – | Not Active | Not Active | Not Active | Not Active | Not Active | Not Active | Not Active | Not Active | Not Active | –
CNCCC=C1c2ccccc2CCc2ccccc21 [NORTRIPTYLINE] | – | – | Not Active | Not Active | Not Active | Not Active | Not Active | Not Active | Not Active | Not Active | Not Active | –
CC1COc2c(N3CCN(C)CC3)c(F)cc3c(=O)c(C(=O)O)cn1c23 (configuration not stated) [OFLOXACIN] | Not Active | – | Not Active | Not Active | Not Active | Not Active | Not Active | Not Active | Not Active | Not Active | Not Active | –
COc1ccc(CN(CCN(C)C)c2ccccn2)cc1 [PYRILAMINE] | Not Active | – | Not Active | Not Active | Not Active | Not Active | Not Active | Not Active | Not Active | Not Active | Not Active | –
Nc1nc2c(ncn2COC(CO)CO)c(=O)[nH]1 [GANCICLOVIR] | Not Active | – | Not Active | Not Active | Not Active | Not Active | Not Active | Not Active | Not Active | Not Active | Not Active | –
COCc1c(C(C)C)nc(C(C)C)c(/C=C/[C@@H](O)C[C@@H](O)CC(=O)O)c1-c1ccc(F)cc1 [CERIVASTATIN] | Not Active | – | Not Active | Not Active | Not Active | Not Active | Not Active | Not Active | Not Active | Not Active | Not Active | –
CC1(C)S[C@@H]2[C@H](NC(=O)[C@H](N)c3ccc(O)cc3)C(=O)N2[C@H]1C(=O)O [AMOXICILLIN] | Not Active | Not Active | Not Active | Not Active | Not Active | Not Active | Not Active | – | – | Not Active | Not Active | –
CN(C)CCCC1(c2ccc(F)cc2)OCc2cc(C#N)ccc21 (configuration not stated) [CITALOPRAM] | Not Active | – | Not Active | Not Active | Not Active | Not Active | Not Active | Not Active | Not Active | Not Active | Not Active | –
